Source: US11667652B2, “MCL1 inhibitors” (Gilead Sciences, Inc., priority 2019, dated 2023)
Values joined by “and” are separate entries in the source; they are usually repeats but may differ in a detail not shown here. Equal values may be shown once. Read-outs that look alike come from different tables or passages of the source.

Experiments:
MCL1/Bim = MCL1/Bim (Homo sapiens (Human), UniProt Q07820); assay: MCL1/Bim Binding AlphaLISA Assay; conditions: recombinant human 6xHis-MCL1 (171-327), biotinylated Bim peptide (51-76)
How it was run: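 AlphaLISA with 0.0625 nM human 6×His-MCL1 (171-327) and 0.0625 nM biotinylated Bim (51-76) peptide in 20 mM Hepes pH 7.5, 150 mM NaCl, 0.002% Brij 35, 1 mM DTT, 0.01% BSA. Compound preincubated with MCL1 1 h, Bim added 2 h, then acceptor and donor beads 1 h each; % inhibition versus DMSO and no-protein/peptide controls.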

SKBR3 cells = assay: SKBR3 Cell Viability Assay; type: cell-based; conditions: CellTiter Glo, read-out: MCL1 CV SKBR3 EC50
How it was run: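 SKBR3 cells (6,000/well, McCoy's 5A + 10% FBS) were added onto pre-spotted serial compound dilutions and incubated 72 h at 37° C, 5% CO2. Viability was read by CellTiter-Glo luminescence, with % inhibition normalised to DMSO (negative) and 10 μM puromycin (positive).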

[1] = Homo sapiens, SK-BR-3, 72 hours

Chain of MCL1/Bim (Q07820 171-327): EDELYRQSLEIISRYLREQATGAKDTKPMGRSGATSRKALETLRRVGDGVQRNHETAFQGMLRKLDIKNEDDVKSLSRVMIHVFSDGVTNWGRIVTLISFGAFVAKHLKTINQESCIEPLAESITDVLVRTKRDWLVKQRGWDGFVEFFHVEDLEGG

Row | Compound | IC50 (MCL1/Bim) | EC50 (SKBR3 cells; [1]) | EC50 (SKBR3 cells; 72 hours)
1 | COc1nn(C)cc1C(=O)N[S@@]1(=O)=NC(=O)c2ccc3c(c2)N(C[C@@H]2CC[C@H]2[C@@H](OC)/C=C/[C@H](Oc2ccncc2)[C@H](C)C1)C[C@@]1(CCCc2cc(Cl)ccc21)CO3 [Example 78] | 0.679 nM | 1060 nM | 
2 | C[C@H]1C/C=C/[C@H](O)[C@@H]2CC[C@H]2CN2C[C@@]3(CCCc4cc(Cl)ccc43)COc3ccc(cc32)C(=O)N=[S@](=O)(Nc2nc(N3CCOCC3)nc3nn(C)cc23)C1 [Example 33] | 0.019 nM | 30.1 nM | 
3 | CO[C@H]1/C=C/C[C@H](C)C[S@@](=O)(NC(=O)c2cc3n(c2)CCOC3)=NC(=O)c2ccc3c(c2)N(C[C@@H]2CC[C@H]21)C[C@]1(CO3)SCCc2cc(Cl)ccc21 [Example 179] | 0.07 nM | 24.1 nM | 
4 | CO[C@H]1/C=C/C[C@H](C)C[S@@](=O)(NC(=O)c2cn(C)nc2N2CCN3CCOC[C@@H]3C2)=NC(=O)c2ccc3c(c2)N(C[C@@H]2CC[C@H]21)C[C@@]1(CCCc2cc(Cl)ccc21)CO3 [Example 23] | 0.083 nM | 17.3 nM | 
5 | CO[C@H]1/C=C/[C@H](OC)CC[S@@](=O)(Nc2ncnc3nn(C)cc23)=NC(=O)c2ccc3c(c2)N(C[C@@H]2CC[C@H]21)C[C@@]1(CCCc2cc(Cl)ccc21)CO3 [Example 71] | 0.894 nM |  | 192 nM
6 | COc1nn(C)cc1C(=O)N[S@@]1(=O)=NC(=O)c2ccc3c(c2)N(C[C@@H]2CC[C@H]2[C@H]2OCCCC2CC[C@H](C)C1)C[C@@]1(CCCc2cc(Cl)ccc21)CO3 (mixture of isomers) [Example 138] | 1.54 nM |  | 1050 nM
7 | COc1nn(C)cc1C(=O)N[S@@]1(=O)=NC(=O)c2ccc3c(c2)N(C[C@@H]2CC[C@H]2[C@@H](OC)/C=C/[C@H](OCCN2CCN(C)CC2)[C@H](C)C1)C[C@@]1(CCCc2cc(Cl)ccc21)CO3 [Example 82] | 0.041 nM | 53.6 nM | 
8 | CO[C@H]1/C=C/C[C@H](C)C[S@@](=O)(NC(=O)N[C@H]2C[C@@H]2OC)=NC(=O)c2ccc3c(n2)N(C[C@@H]2CC[C@H]21)C[C@@]1(CCCc2cc(Cl)ccc21)CO3 (mixture of isomers) [Example 188] | 0.06 nM | 31.9 nM | 
9 | COc1nn(C)cc1C(=O)N[S@@]1(=O)=NC(=O)c2ccc3c(c2)N(C[C@@H]2CC[C@H]2[C@@H](OC)/C=C/[C@@H](OC)[C@H](C)[C@H]1C)C[C@@]1(CCCc2cc(Cl)ccc21)CO3 [Example 69] | 2.07 nM |  | 1000 nM
10 | CO[C@H]1/C=C/CCC[S@@](=O)(NC(=O)c2cnn(C)c2)=NC(=O)c2ccc3c(c2)N(C[C@@H]2CC[C@H]21)C[C@]1(CO3)C[C@@H]2C[C@@H]2c2cc(Cl)ccc21 [Example 173] | 0.1 nM | 310 nM | 
11 | COc1nn(C)cc1C(=O)N[S@@]1(=O)=NC(=O)c2ccc3c(c2)N(C[C@@H]2CC[C@H]2[C@@H](OCCN2CCN(C4COC4)CC2)/C=C/C[C@H](C)C1)C[C@@]1(CCCc2cc(Cl)ccc21)CO3 [Example 60] | 0.07 nM | 19.2 nM | 
12 | COc1nn(C)cc1C(=O)N[S@@]1(=O)=NC(=O)c2ccc3c(c2)N(C[C@@H]2CC[C@H]2[C@@H](OC)/C=C/[C@H](OCCn2ccnc2)[C@H](C)C1)C[C@@]1(CCCc2cc(Cl)ccc21)CO3 [Example 88] | 0.055 nM |  | 170 nM
13 | COc1nn(C)cc1C(=O)N[S@@]1(=O)=NC(=O)c2ccc3c(c2)N(C[C@@H]2CC[C@H]2[C@@H](OC)C#CC[C@H](C)C1)C[C@@]1(CCCc2cc(Cl)ccc21)CO3 [Example 37] | 0.04 nM | 57.7 nM | 
14 | C[C@H]1C/C=C/[C@H](O)[C@@H]2CC[C@H]2CN2C[C@@]3(CCCc4cc(Cl)ccc43)COc3ccc(cc32)C(=O)N=[S@](=O)(Nc2nc(Cl)nc3nn(C)cc23)C1 [Example 30] | 0.03 nM | 930 nM | 
15 | CO[C@H]1/C=C/C[C@H](C)C[S@@](=O)(NC(=O)[C@H]2C[C@](C)(O)C2)=NC(=O)c2ccc3c(n2)N(C[C@@H]2CC[C@H]21)C[C@@]1(CCCc2cc(Cl)ccc21)CO3 [Example 189] | 0.07 nM | 71.8 nM | 
16 | CO[C@H]1/C=C/C[C@H](C)[C@@H](C)[S@@](=O)(NC(=O)COC2CCOCC2)=NC(=O)c2ccc3c(n2)N(C[C@@H]2CC[C@H]21)C[C@@]1(CCCc2cc(Cl)ccc21)CO3 [Example 203] | 0.12 nM | 156 nM | 
17 | CO[C@H]1/C=C/C[C@H](C)C[S@@](=O)(NC(=O)NC2CC2)=NC(=O)c2ccc3c(c2)N(C[C@@H]2CC[C@H]21)C[C@]1(CO3)C[C@@H]2C[C@@H]2c2cc(Cl)ccc21 [Example 166] | 0.171 nM | 190 nM | 
18 | CO[C@H]1/C=C/CCC[S@@](=O)(Nc2ncnc3nn(C)cc23)=NC(=O)c2ccc3c(c2)N(C[C@@H]2CC[C@H]21)C[C@@]1(CCCc2cc(Cl)ccc21)CO3 [Example 26] | 0.224 nM and 0.233 nM | 119 nM | 

Row | Compound | IC50 (MCL1/Bim) | EC50 (SKBR3 cells; [1]) | EC50 (SKBR3 cells; 72 hours)
19 | COc1nn(C)cc1C(=O)N[S@@]1(=O)=NC(=O)c2ccc3c(c2)N(C[C@@H]2CC[C@H]2[C@H]2OC(O)C[C@@H]2CC[C@H](C)C1)C[C@@]1(CCCc2cc(Cl)ccc21)CC3 (mixture of isomers) [Example 150] | 0.035 nM | 114 nM | 
20 | CO[C@H]1/C=C/C[C@H](C)[C@@H](C)[S@@](=O)(NC(=O)c2cnn(C)c2)=NC(=O)c2ccc3c(c2)N(C[C@@H]2CC[C@H]21)C[C@]1(CO3)SCCc2cc(Cl)ccc21 [Example 180] | 0.06 nM | 24.9 nM | 
21 | COc1nn(C)cc1C(=O)N[S@@]1(=O)=NC(=O)c2ccc3c(c2)N(C[C@@H]2CC[C@H]2C(=O)/C=C/C[C@H](C)[C@H]1C)C[C@@]1(CCCc2cc(Cl)ccc21)CO3 [Example 48] | 0.693 nM |  | 173 nM
22 | COc1nn(C)cc1C(=O)N[S@@]1(=O)=NC(=O)c2ccc3c(n2)N(C[C@@H]2CC[C@H]2[C@@H](OC)/C=C/[C@@H](OC)[C@H](C)C1)C[C@@]1(CCCc2cc(Cl)ccc21)CO3 [Example 197] | 0.35 nM |  | 516 nM
23 | COc1nnc(NS2(=O)=NC(=O)c3ccc4c(c3)N(C[C@@H]3CC[C@H]3[C@@H](OC)/C=C/C[C@H](C)C2)C[C@@]2(CCCc3cc(Cl)ccc32)CO4)c2nn(C)cc12 (stereo partly drawn) [Example 17] | 2.39 nM |  | 4550 nM
24 | CO[C@H]1/C=C/CCC[S@@](=O)(NC(=O)NC2CC2)=NC(=O)c2ccc3c(c2)N(C[C@@H]2CC[C@H]21)C[C@]1(CO3)SCCc2cc(Cl)ccc21 [Example 183] | 0.24 nM | 454 nM | 
25 | COc1nn(C)cc1C(=O)N[S@@]1(=O)=NC(=O)c2ccc3c(c2)N(C[C@@H]2CC[C@H]2[C@@H](OCCN2CC(N(C)C)C2)/C=C/C[C@H](C)C1)C[C@@]1(CCCc2cc(Cl)ccc21)CO3 [Example 58] | 0.098 nM |  | 38.3 nM
26 | CO[C@H]1/C=C/C[C@H](C)C[S@@](=O)(Nc2ncnc3nn(C)cc23)=NC(=O)c2ccc3c(c2)N(C[C@@H]2CC[C@H]21)C[C@@]1(CCCc2cc(Cl)ccc21)CO3 [Example 8] | 0.061 nM | 26.5 nM | 
27 | COc1nn(C)cc1C(=O)N[S@@]1(=O)=NC(=O)c2ccc3c(c2)N(C[C@@H]2CC[C@H]2[C@H]2OCC[C@@H]2CC[C@H](C)C1)C[C@@]1(CCCc2cc(Cl)ccc21)CO3 [Example 136] | 0.096 nM | 67.2 nM | 
28 | CCn1ccc(OC[C@H]2C/C=C/[C@H](OC)[C@@H]3CC[C@H]3CN3C[C@@]4(CCCc5cc(Cl)ccc54)COc4ccc(cc43)C(=O)N=[S@@](=O)(NC(=O)COC3CCOCC3)C2)n1 [Example 46] | 0.521 nM |  | 1600 nM
29 | CO[C@H]1/C=C/[C@H](O)[C@H](C)C[S@@](=O)(Nc2ncnc3nn(C)cc23)=NC(=O)c2ccc3c(c2)N(C[C@@H]2CC[C@H]21)C[C@@]1(CCCc2cc(Cl)ccc21)CO3 [Example 66] | 0.039 nM | 8.6 nM | 
30 | CO[C@H]1/C=C/C[C@H](C)C[S@@](=O)(NC(=O)c2cc(C(=O)N3CCOCC3)n(C)c2)=NC(=O)c2ccc3c(c2)N(C[C@@H]2CC[C@H]21)C[C@@]1(CCCc2cc(Cl)ccc21)CO3 [Example 207] | 0.08 nM | 87.7 nM | 
31 | COc1nn(C)cc1C(=O)N[S@@]1(=O)=NC(=O)c2ccc3c(c2)N(C[C@@H]2CC[C@H]2[C@@H](OC)/C=C/[C@H](OCCN2CCN(C4COC4)CC2)[C@H](C)C1)C[C@@]1(CCCc2cc(Cl)ccc21)CO3 [Example 79] | 0.062 nM |  | 42.9 nM
32 | COc1nn(C)cc1C(=O)N[S@@]1(=O)=NC(=O)c2ccc3c(c2)N(C[C@@H]2CC[C@H]2/C=C/CC[C@H](C)C1)C[C@@]1(CCCc2cc(Cl)ccc21)CO3 (mixture of isomers) [Example 129] | 0.142 nM |  | 1210 nM
33 | CO[C@H]1/C=C/C[C@H](C)[C@@H](C)[S@@](=O)(NC(=O)COC2CCOCC2)=NC(=O)c2ccc3c(c2)N(C[C@@H]2CC[C@H]21)C[C@]1(CO3)C[C@@H]2C[C@@H]2c2cc(Cl)ccc21 [Example 169] | 0.048 nM | 215 nM | 
34 | COC1CC(C(=O)N[S@@]2(=O)=NC(=O)c3ccc4c(n3)N(C[C@@H]3CC[C@H]3[C@@H](OC)/C=C/C[C@H](C)C2)C[C@@]2(CCCc3cc(Cl)ccc32)CO4)C1 (stereo partly drawn) [Example 195] | 0.05 nM | 23.8 nM | 
35 | C[C@H]1C/C=C/[C@H](O)[C@@H]2CC[C@H]2CN2C[C@@]3(CCCc4cc(Cl)ccc43)COc3ccc(cc32)C(=O)N=[S@](=O)(Nc2nc3nnnn3c3nn(C)cc23)C1 (mixture of isomers) [Example 31] | 0.064 nM | 4390 nM | 
36 | COc1nn(C)cc1C(=O)N[S@@]1(=O)=NC(=O)c2ccc3c(c2)N(C[C@@H]2CC[C@H]2[C@@](O)(CC(=O)N2CCOCC2)/C=C/C[C@H](C)C1)C[C@@]1(CCCc2cc(Cl)ccc21)CO3 [Example 99] | 0.034 nM |  | 14.2 nM
